This passage reports IC50 results from patent US20130225548A1, “Pyridine Derivative and Medicinal Agent” (NIPPON SHINYAKU CO., LTD., priority 2010, published 2013).

Counter-ions that a name gives are not always drawn. Bounds are passed on as bounds.

This assay addresses T1, Syk tyrosine kinase (Homo sapiens, UniProt P43405).
T1 construct: purchased Carna Biosciences, Inc
The assay can be described thus: Test for Syk tyrosine kinase inhibitory activity (ELISA). The assay is classed as biochemical. To be noted: Syk tyrosine kinase (Carna Biosciences), 25 μM ATP in substrate solution, 30° C. 1 hour, n=2; read-out: Evaluation (IC50, concentration inhibiting the tyrosine kinase activity at 50%). An outline of the steps:
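Syk kinase (0.025 nM stock before addition) with 625 nM biotinylated peptide and 25 μM ATP (substrate-solution levels) in Tris pH 7.5, MgCl2, DTT; 1 h at 30 °C on streptavidin plates. Phosphotyrosine detected by HRP anti-pTyr antibody, TMB, A450; IC50 by non-linear regression.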

Take `CC(C)(O)Cn1cnc2ccc(-c3cc(C4CC4)cc(Nc4cc(C#N)ccn4)n3)cc21` [Example 144, 2-({4-cyclopropyl-6-[1-(2-hydroxy-2-methylpropyl)-1H-benzimidazol-6-yl]pyridin-2-yl}amino)pyridine-4-carbonitrile hydrochloride]: the IC50 fell in the range of 50 to 500 nM.

For the compound `N#Cc1ccnc(Nc2cc(C3CC3)cc(-c3ccc4ncn([C@H]5CC[C@@H](O)CC5)c4c3)n2)c1` [Example 145, 2-({4-cyclopropyl-6-[1-(cis-4-hydroxycyclohexyl)-1H-benzimidazol-6-yl]pyridin-2-yl}amino)pyridine-4-carbonitrile hydrochloride], the IC50 was 5 to 50 nM.

Turning to `N#Cc1ccnc(Nc2cc(C3CC3)cc(-c3ccc4c(c3)ncn4CCO)n2)c1` [Example 147, 2-({4-cyclopropyl-6-[1-(2-hydroxyethyl)-1H-benzimidazol-5-yl]pyridin-2-yl}amino)pyridine-4-carbonitrile hydrochloride], the IC50 fell in the range of 50 to 500 nM.

As for `COCCn1cnc2cc(-c3cc(C4CC4)cc(Nc4cc(C#N)ccn4)n3)ccc21` [Example 148, hydrochloride], the IC50 is 50 to 500 nM.

As for `CCn1cnc2cc(-c3cc(C4CC4)cc(Nc4cc(C#N)ccn4)n3)ccc21` [Example 149, 2-{[4-cyclopropyl-6-(1-ethyl-1H-benzimidazol-5-yl)pyridin-2-yl]amino}pyridine-4-carbonitrile hydrochloride], the IC50 fell in the range of 50 to 500 nM.

`N#Cc1ccnc(Nc2cc(C3CC3)cc(-c3ccc4c(c3)ncn4C3CC3)n2)c1` [Example 150, 2-{[4-cyclopropyl-6-(1-cyclopropyl-1H-benzimidazol-5-yl)pyridin-2-yl]amino}pyridin-4-carbonitrile hydrochloride]: the IC50 lay within 50 to 500 nM.

As for `CC(=O)NCCn1cnc2cc(-c3cc(C4CC4)cc(Nc4cc(C#N)ccn4)n3)ccc21` [Example 151, N-[2-(5-{6-[(4-cyanopyridin-2-yl)amino]-4-cyclopropylpyridin-2-yl}-1H-benzimidazol-1-yl)ethyl]acetamide hydrochloride], the IC50 fell in the range of 5 to 50 nM.

As for `Cn1cnc2ccc(-c3cc(C4CC4)cc(Nc4cc(C#N)ccn4)n3)cc21` [Example 153, 2-{[4-cyclopropyl-6-(1-methyl-1H-benzimidazol-6-yl)pyridin-2-yl]amino}pyridine-4-carbonitrile hydrochloride], the IC50 lay in the range of 5 to 50 nM.

Consider `N#Cc1ccnc(Nc2cc(C3CC3)cc(-c3ccc(CN4CCCN(C(N)=O)CC4)nc3)n2)c1` [Example 154, 4-({6-[(4-cyanopyridin-2-yl)amino]-4-cyclopropyl-2,3′-bipyridin-6′-yl}methyl)-1,4-diazepane-1-carboxamide hydrochloride], for which the IC50 lay in the range of 50 to 500 nM.

`Cc1cc(N2CCS(=O)(=O)CC2)ncc1-c1cc(C2CC2)cc(Nc2cc(C#N)ccn2)n1` [Example 155, 2-{[4-cyclopropyl-6′-(1,1-dioxidethiomorpholin-4-yl)-4′-methyl-2,3′-bipyridin-6-yl]amino}pyridine-4-carbonitrile hydrochloride]: the IC50 fell in the range of 5 to 50 nM.

As to `N#Cc1ccnc(Nc2cc(C3CC3)cc(-c3ccc4[nH]c(=O)n([C@H]5CC[C@H](O)CC5)c4c3)n2)c1` [Example 156, 2-({4-cyclopropyl-6-[3-(trans-4-hydroxycyclohexyl)-2oxo-2,3-dihydro-1H-benzimidazol-5-yl]pyridin-2-yl}amino)pyridine-4-carbonitrile hydrochloride], the IC50 is less than 5 nM.

Consider `N#Cc1ccnc(Nc2cc(C3CC3)cc(-c3ccc4ccnc(N5CCNC(=O)C5)c4c3)n2)c1` [Example 158, 2-({4-cyclopropyl-6-[1-(3-oxopiperazin-1-yl)isoquinolin-7-yl]pyridin-2-yl}amino)pyridine-4-carbonitrile hydrochloride], for which the IC50 was less than 5 nM.

Consider `Cc1nc2ccc(-c3cc(C4CC4)cc(Nc4cc(C#N)ccn4)n3)cc2n1[C@H]1CC[C@H](O)CC1` [Example 159, 2-({4-cyclopropyl-6-[1-trans-4-hydroxycylohexyl)-2-methyl-1H-benzimidazol-6-yl]pyridin-2-yl}amino)pyridine-4-carbonitrile hydrochloride], for which the IC50 is less than 5 nM.

As to `CC(C)c1nc2ccc(-c3cc(C4CC4)cc(Nc4cc(C#N)ccn4)n3)cc2n1[C@H]1CC[C@H](O)CC1` [Example 161, 2-({4-cyclopropyl-6-[1-(trans-4-hydroxycyclohexyl)-2-(propan-2-yl)-1H-benzimidazol-6-yl]pyridin-2-y}amino)pyridine-4-carbonitrile hydrochloride], the IC50 was less than 5 nM.

For `N#Cc1ccnc(Nc2cc(C3CC3)cc(-c3ccc4nc(CO)n([C@H]5CC[C@H](O)CC5)c4c3)n2)c1` [Example 162, 2-({4-cyclopropyl-6-[1-(trans-4-hydroxycyclohexyl)-2-(hydroxymethyl)-1H-benzimidazol-6-yl]pyridin-2-yl}amino)pyridine-4-carbonitrile hydrochloride], the IC50 was less than 5 nM.

For `N#Cc1ccnc(Nc2cc(C3CC3)cc(-c3ccc4ccnc(N5CCNCC5)c4c3)n2)c1` [Example 163, 2-({4-cyclopropyl-6-[1-(piperazin-1-yl)isoquinolin-7-yl]pyridin-2-yl}amino)pyridine-4-carbonitrile hydrochloride], the IC50 fell in the range of 5 to 50 nM.

For the compound `N#Cc1ccnc(Nc2cc(C3CC3)cc(-c3ccc4ccnc(N5CCC(O)CC5)c4c3)n2)c1` [Example 164, 2-({4-cyclopropyl-6-[1-(4-hydroxypiperidin-1-yl)isoquinolin-7-yl]pyridin-2-yl}amino)pyridine-4-carbonitrile hydrochloride], the IC50 lay in the range of 5 to 50 nM.

Take `N#Cc1ccnc(Nc2cc(C3CC3)cc(-c3ccc4ccnc(N5CC[C@@H](O)C5)c4c3)n2)c1` [Example 165, 2-[(4-cyclopropyl-6-{1-[(3R)-3-hydroxypyrrolidin-1-]isoquinolin-7-yl}pyridin-2-yl)amino]pyridine-4-carbonitrile hydrochloride]: the IC50 lay within 5 to 50 nM.

On to `N#Cc1ccnc(Nc2cc(C3CC3)cc(-c3ccc4ccnc(N5CC(O)C5)c4c3)n2)c1` [Example 166, 2-({4cyclopropyl-6-[1-(3-hydroxyazetidin-1-yl)isoquinolin-7-yl]pyridin-2-yl}amino)pyridine-4-carbonitrile hydrochloride], for which the IC50 was in the range of 5 to 50 nM.

As for `N#Cc1ccnc(Nc2cc(C3CC3)cc(-c3ccc4ccnc(N5CCC[C@H]5CO)c4c3)n2)c1` [Example 167, 2-[(4-cyclopropyl-6-{1-[(2S)-2-(hydroxymethyl)pyrrolidin-1-yl]isoquinolin-7-yl}pyridin-2-yl)amino]pyridine-4-carbonitrile hydrochloride], the IC50 was 5 to 50 nM.

On to `N#Cc1ccnc(Nc2cc(C3CC3)cc(-c3ccc4ccnc(N5CC[C@@H](F)C5)c4c3)n2)c1` [Example 168, 2-[(4-cyclopropyl-6-{1-[(3R)-3-fluoropyrrolidin-1-yl]isoquinolin-7-yl}-pyridin-2-yl)amino]pyridine-4-carbonitrile hydrochloride], for which the IC50 is 50 to 500 nM.

As for `N#Cc1ccnc(Nc2cc(C3CC3)cc(-c3ccc4ccnc(N5CC[C@@H](N)C5)c4c3)n2)c1` [Example 169, hydrochloride], the IC50 was 5 to 50 nM.

`N#Cc1ccnc(Nc2cc(C3CC3)cc(-c3ccc4ccnc(N5CCNC5=O)c4c3)n2)c1` [Example 171, 2-({4-cyclopropyl-6-[1-(2-oxo-imidazolidin-1-yl)isoquinolin-7-yl]pyridin-2-yl}amino)pyridine-4-carbonitrile hydrochloride]: the IC50 was 5 to 50 nM.

As for `N#Cc1ccnc(Nc2cc(C3CC3)cc(-c3ccc4ncn([C@H]5CC[C@H](N)CC5)c4c3)n2)c1` [Example 172, 2-({6-[1-(trans-4-aminocyclohexyl)-1H-benzimidazol-6-yl]-4-cyclopropylpyridin-2-yl}amino)pyridine-4-carbonitrile hydrochloride], the IC50 is 5 to 50 nM.

As for `N#Cc1ccnc(Nc2cc(C3CC3)cc(-c3ccc4ncn(C5CCNCC5)c4c3)n2)c1` [Example 173, hydrochloride], the IC50 was less than 5 nM.

As to `N#Cc1ccnc(Nc2cc(C3CC3)cc(-c3ccc4ncn(Cc5ccc(=O)[nH]c5)c4c3)n2)c1` [Example 174, 2-({4-cyclopropyl-6-[1-[(6-oxo-1,6-dihydropyridin-3-yl)methyl]-1H-benzimidazol-6-yl}pyridin-2-yl)amino]pyridine-4-carbonitrile hydrochloride], the IC50 is 5 to 50 nM.

Consider `N#Cc1ccnc(Nc2cc(C3CC3)cc(-c3ccc4nc([C@H]5CC[C@H](O)CC5)[nH]c4c3)n2)c1` [Example 175, 2-({4-cyclopropyl-6-[2-(trans-4-hydroxycyclohexyl)-1H-benzimidazol-6-yl]pyridin-2-yl}amino)pyridine-4-carbonitrile hydrochloride], for which the IC50 lay in the range of 50 to 500 nM.

In the case of `N#Cc1ccnc(Nc2cc(C3CC3)cc(-c3ccc4ncn([C@H]5CC[C@H](C#N)CC5)c4c3)n2)c1` [Example 176, 2-({6-[1-(trans-4-cyanocyclohexyl)-1H-benzimidazol-6-yl]-4-cyclopropylpyridin-2-yl}amino)pyridine-4-carbonitrile hydrochloride], the IC50 was 5 to 50 nM.

For `N#Cc1ccnc(Nc2cc(C3CC3)cc(-c3cnc(N4CCS(=O)(=O)CC4)c(F)c3)n2)c1` [Example 177, 2-{[4-cyclopropyl-6′-(1,1-dioxidethiomorpholin-4-yl)-5′-fluoro-2,3′-bipyridin-6-yl]amino}pyridine-4-carbonitrile hydrochloride], the IC50 lay in the range of 5 to 50 nM.
